Assay results published in patent US8541462B2, “Tetrahydrocarbazole derivatives as ligands of G-protein coupled receptors” (AEterna Zentaris GmbH, priority 2007, dated 2013).

Test: Metabolic stability testing in liver microsomes
Type: in vitro ADME
Details: mixed-gender human liver microsomes, 1 mg microsomal protein/mL, initial concentration 10 μM, 60 minutes at 37° C.; WO 2006/005484-substance 7 = 100%
Description: Subcellular fractions of different tissues can be prepared easily by ultracentrifugation. Most commonly these are prepared from the liver of animals and human donors to gain information about the potential hepatic clearance of compounds (first-pass elimination of drugs). Human or animal (e.g. dog, mouse, rat) subcellular fraction like liver microsomes, or possibly the fraction called S9 have therefore become a very commonly and widely used as an in vitro model to investigate mainly cytochrome P450 dependent phase I (but also phase II) metabolism that takes place in the liver.
In order to reflect the standard proportion of the enzymes in human and animal livers, liver microsomes are usually pooled from a number of […] of the same sex (or mixed-gender). By supplementing the liver microsomes with relevant cofactors and other components it is possible to investigate and distinguish between CYPs, flavin-containing monooxygenase (FMO) and UDP-glucuronosyltransferase (UGT) activities.
Selected compounds of the invention were tested for their stability in mixed-gender human liver microsomes and compared to pertinent prior art compounds.
Under the test conditions applied (1 mg microsomal protein/mL, initial concentration of 10 μM, and incubation for 60 minutes at 37° C.) the following normalized results were obtained.

Row | SMILES | Normalized microsomal stability
1 | CCNC(=O)Nc1nnc([C@@H](NC(=O)[C@]2(NC(=O)[C@@H](NC(=O)Cc3ccccc3F)C(C)CC)CCc3[nH]c4c(C(F)(F)F)cccc4c3C2)C(C)CC)o1 (stereo partly drawn) [Compound 31, (S)-3-{(S)-2-[2-(2-Fluoro-phenyl)-acetylamino]-3-methyl-pentanoylamino}-8-trifluoromethyl-2,3,4,9-tetrahydro-1H-carbazole-3-carboxylic acid {(S)-1-[5-(3-ethyl-ureido)-[1,3,4]oxadiazol-2-yl]-2-methyl-butyl}-amide] | 276%
2 | CCC(C)[C@H](NC(=O)Cc1ccccc1F)C(=O)N[C@]1(C(=O)N[C@H](C(=O)NCN2CCOCC2)C(C)CC)CCc2[nH]c3c(C(F)(F)F)cccc3c2C1 (stereo partly shown) [Compound 36] | 774%
3 | CCC(C)[C@H](NC(=O)Cc1ccccc1F)C(=O)N[C@]1(C(=O)N[C@H](C(=S)NCCN2CCOCC2)C(C)CC)CCc2[nH]c3c(C(F)(F)F)cccc3c2C1 (stereo partly drawn) [Compound 54, (R)-3-{(S)-2-[2-(2-Fluoro-phenyl)-acetylamino]-3-methyl-pentanoylamino}-8-trifluoromethyl-2,3,4,9-tetrahydro-1H-carbazole-3-carboxylic acid [(S)-2-methyl-1-(2-morpholin-4-yl-ethylthiocarbamoyl)-butyl]-amide] | 611%
4 | CCC(C)[C@H](NC(=O)Cc1ccccc1F)C(=O)N[C@]1(C(=O)N[C@H](C(=O)NC2CCC(O)CC2)C(C)CC)CCc2[nH]c3c(C(F)(F)F)cccc3c2C1 (stereo partly drawn) [Compound 73, (R)-3-{(S)-2-[2-(2-Fluoro-phenyl)-acetylamino]-3-methyl-pentanoylamino}-8-trifluoromethyl-2,3,4,9-tetrahydro-1H-carbazole-3-carboxylic acid [(S)-1-(4-hydroxy-cyclohexylcarbamoyl)-2-methyl-butyl]-amide] | 624%
5 | CCC(C)[C@H](NC(=O)Cc1ccccc1F)C(=O)N[C@]1(C(=O)N[C@H](C(=S)NCCCCn2cncn2)C(C)CC)CCc2[nH]c3c(C(F)(F)F)cccc3c2C1 (stereo partly drawn) [compound 114, (R)-3-{(S)-2-[2-(2-Fluoro-phenyl)-acetylamino]-3-methyl-pentanoylamino}-8-trifluoromethyl-2,3,4,9-tetrahydro-1H-carbazole-3-carboxylic acid [(S)-2-methyl-1-1(4-[1,2,4]triazol-1-ylbutylthiocarbamoyl)-butyl]-amide] | 537%
6 | CCC(C)[C@H](NC(=O)Cc1ccccc1F)C(=O)N[C@]1(C(=O)N[C@H](C(=O)Nc2ccc3ncccc3c2)C(C)CC)CCc2[nH]c3c(C(F)(F)F)cccc3c2C1 (stereo partly drawn) [compound 137, (R)-3-{(S)-2-[2-(2-Fluoro-phenyl)-acetylamino]-3-methyl-pentanoylamino}-8-trifluoromethyl-2,3,4,9-tetrahydro-1H-carbazole-3-carboxylic acid [(S)-2-methyl-1-(quinolin-6-ylcarbamoyl)-butyl]-amide] | 1296%
7 | CCC(C)[C@H](NC(=O)Cc1ccccc1F)C(=O)N[C@]1(C(=O)N[C@H](C(=O)NNc2ccccc2)C(C)CC)CCc2[nH]c3c(C(F)(F)F)cccc3c2C1 (stereo partly drawn) [compound 144, (R)-3-{(S)-2-[2-(2-Fluoro-phenyl)-acetylamino]-3-methyl-pentanoylamino}-8-trifluoromethyl-2,3,4,9-tetrahydro-1H-carbazole-3-carboxylic acid [(S)-2-methyl-1-(N′-phenyl-hydrazinocarbonyl)-butyl]-amide] | 1352%
8 | CCC(C)[C@H](NC(=O)Cc1ccccc1F)C(=O)N[C@]1(C(=O)N[C@H](C(=O)NNC(N)=O)C(C)CC)CCc2[nH]c3c(C(F)(F)F)cccc3c2C1 (stereo partly drawn) [compound 164, (R)-3-{(S)-2-[2-(2-Fluoro-phenyl)-acetylamino]-3-methyl-pentanoylamino}-8-trifluoromethyl-2,3,4,9-tetrahydro-1H-carbazole-3-carboxylic acid [(S)-1-(N′-aminocarbonyl-hydrazinocarbonyl)-2-methyl-butyl]-amide] | 1230%
9 | CCNC(=O)NC[C@@H](NC(=O)[C@@]1(NC(=O)[C@@H](NC(=O)Cc2ccccc2F)C(C)CC)CCc2[nH]c3c(C(F)(F)F)cccc3c2C1)C(C)CC (stereo partly drawn) [compound 167, (R)-3-{(S)-2-[2-(2-Fluoro-phenyl)-acetylamino]-3-methyl-pentanoylamino}-8-trifluoromethyl-2,3,4,9-tetrahydro-1H-carbazole-3-carboxylic acid {(S)-1-[(3-ethyl-ureido)-methyl]-2-methyl-butyl}-amide] | 274%
10 | CCNC(=S)NC[C@@H](NC(=O)[C@@]1(NC(=O)[C@@H](NC(=O)Cc2ccccc2F)C(C)CC)CCc2[nH]c3c(C(F)(F)F)cccc3c2C1)C(C)CC (stereo partly drawn) [compound 173, (R)-3-{(S)-2-[2-(2-Fluoro-phenyl)-acetylamino]-3-methyl-pentanoylamino}-8-trifluoromethyl-2,3,4,9-tetrahydro-1H-carbazole-3-carboxylic acid {(S)-1-[(3-ethyl-thioureido)-methyl]-2-methyl-butyl}-amide] | 285%
11 | CCC(C)[C@H](NC(=O)Cc1ccccc1F)C(=O)N[C@]1(C(=O)N[C@H](C(=O)NCc2cncnc2)C(C)CC)CCc2[nH]c3c(C(F)(F)F)cccc3c2C1 (stereo partly shown) [compound 183] | 1350%
12 | CCC(C)[C@H](NC(=O)Cc1ccccc1F)C(=O)N[C@]1(C(=O)N[C@H](C(=O)NCCCn2c[n+](C(C)(C)C)nn2)C(C)CC)CCc2[nH]c3c(C(F)(F)F)cccc3c2C1.O=C([O-])C(F)(F)F (stereo partly drawn) [compound 188, 1-tert-butyl-4-(3-{(S)-2-[((R)-3-{(S)-2-[2-(2-fluoro-phenyl)-acetylamino]-3-methyl-pentanoylamino}-8-trifluoromethyl-2,3,4,9-tetrahydro-1H-carbazole-3-carbonyl)-amino]-3-methyl-pentanoylamino}-propyl)-4H-tetrazol-1-ium; Trifluoro-acetate] | 1259%
13 | CCC(C)[C@H](NC(=O)Cc1ccccc1F)C(=O)N[C@]1(C(=O)N[C@H](CNC(=O)NCc2ccncc2)C(C)CC)CCc2[nH]c3c(C(F)(F)F)cccc3c2C1 (stereo partly drawn) [compound 190, (R)-3-{(S)-2-[2-(2-Fluoro-phenyl)-acetylamino]-3-methyl-pentanoylamino}-8-trifluoromethyl-2,3,4,9-tetrahydro-1H-carbazole-3-carboxylic acid [(S)-2-methyl-1-(3-pyridin-4-ylmethyl-ureidomethyl)-butyl]-amide] | 665%

Other lines, results leading:

Row | Normalized microsomal stability | SMILES
14 | 1033% | CCOC(=O)c1csc(C(NC(=O)[C@@]2(NC(=O)[C@@H](NC(=O)Cc3ccccc3F)[C@@H](C)CC)CCc3[nH]c4c(C(F)(F)F)cccc4c3C2)[C@@H](C)CC)n1 (stereo in doubt) [compound 251, 2-{(1R,2S)-1-[((R)-3-{(2S,3S)-2-[2-(2-Fluoro-phenyl)-acetylamino]-3-methyl-pentanoylamino}-8-trifluoromethyl-2,3,4,9-tetrahydro-1H-carbazole-3-carbonyl)-amino]-2-methyl-butyl}-thiazole-4-carboxylic acid ethyl ester]
15 | 800% | CCC(C)[C@H](NC(=O)Cc1ccccc1F)C(=O)N[C@]1(C(=O)N[C@H](CNC(=S)NCc2ccncc2)C(C)CC)CCc2[nH]c3c(C(F)(F)F)cccc3c2C1 (stereo partly drawn) [compound 205, (R)-3-{(S)-2-[2-(2-Fluoro-phenyl)-acetylamino]-3-methyl-pentanoylamino}-8-trifluoromethyl-2,3,4,9-tetrahydro-1H-carbazole-3-carboxylic acid [(S)-2-methyl-1-(3-pyridin-4-ylmethyl-thioureidomethyl)-butyl]-amide]
16 | 452% | CCC(C)[C@H](NC(=O)Cc1ccccc1F)C(=O)N[C@]1(C(=O)N[C@H](C(=O)NN2CCOCC2)C(C)CC)CCc2[nH]c3c(C(F)(F)F)cccc3c2C1 (stereo partly drawn) [compound 219, (R)-3-{(S)-2-[2-(2-Fluoro-phenyl)-acetylamino]-3-methyl-pentanoylamino}-8-trifluoromethyl-2,3,4,9-tetrahydro-1H-carbazole-3-carboxylic acid [(S)-2-methyl-1-(morpholin-4-ylcarbamoyl)-butyl]-amide]
17 | 1948% | CCC(C)[C@H](NC(=O)Cc1cccnc1)C(=O)N[C@]1(C(=O)N[C@H](C(N)=S)C(C)CC)CCc2[nH]c3c(C(F)(F)F)cccc3c2C1 (stereo partly drawn) [compound 230, (R)-3-[(S)-3-Methyl-2-(2-pyridin-3-yl-acetylamino)-pentanoylamino]-8-trifluoromethyl-2,3,4,9-tetrahydro-1H-carbazole-3-carboxylic acid ((S)-2-methyl-1-thiocarbamoyl-butyl)-amide]
18 | 1328% | CCC(C)[C@H](NC(=O)Cc1ccncc1)C(=O)N[C@]1(C(=O)N[C@H](C(N)=S)C(C)CC)CCc2[nH]c3c(C(F)(F)F)cccc3c2C1 (stereo partly drawn) [compound 236, (R)-3-[(S)-3-Methyl-2-(2-pyridin-4-yl-acetylamino)-pentanoylamino]-8-trifluoromethyl-2,3,4,9-tetrahydro-1H-carbazole-3-carboxylic acid ((S)-2-methyl-1-thiocarbamoyl-butyl)-amide]
19 | 307% | CCC(C)[C@H](NC(=O)NCc1ccc(OC)cc1)C(=O)N[C@]1(C(=O)N[C@H](C(N)=S)C(C)CC)CCc2[nH]c3c(C(F)(F)F)cccc3c2C1 (stereo partly drawn) [compound 239, (R)-3-{(S)-2-[3-(4-Methoxy-benzyl)-ureido]-3-methyl-pentanoylamino}-8-trifluoromethyl-2,3,4,9-tetrahydro-1H-carbazole-3-carboxylic acid ((S)-2-methyl-1-thiocarbamoyl-butyl)-amide]
